Key:
Protease = Protease (Human immunodeficiency virus 1, UniProt Q9YQ12); experiment: Inhibition of wild type HIV1 protease
[1] = tested on: Human immunodeficiency virus 1; experiment: Antiviral activity against HIV1 LAI infected in human MT-2 cells assessed as virus-induced cytopathic effect by MTT assay; settings: Human immunodeficiency virus 1, LAI
[2] = tested on: Human immunodeficiency virus 1; experiment: Antiviral activity against multidrug resistant HIV1 MDR/G containing protease mutant infected in human PHA-PBMs assessed as inhibition of p24 Gag protein production relative to wild type
[3] = tested on: Human immunodeficiency virus 1; experiment: Antiviral activity against multidrug resistant HIV1 MDR/B containing protease mutant infected in human PHA-PBMs assessed as inhibition of p24 Gag protein production relative to wild type
[4] = tested on: Human immunodeficiency virus 1; experiment: Antiviral activity against multidrug resistant HIV1 MDR/B containing protease mutant infected in human PHA-PBMs assessed as inhibition of p24 Gag protein production; settings: Human immunodeficiency virus 1, MDR/B
[5] = tested on: Human immunodeficiency virus 1; experiment: Antiviral activity against multidrug resistant HIV1 MDR/C containing protease mutant infected in human PHA-PBMs assessed as inhibition of p24 Gag protein production; settings: Human immunodeficiency virus 1, MDR/C
[6] = tested on: Human immunodeficiency virus 1; experiment: Antiviral activity against wild type HIV1 ERS104P infected in human PHA-PBMs assessed as inhibition of p24 Gag protein production; settings: Human immunodeficiency virus 1, ERS104P
[7] = tested on: Human immunodeficiency virus 1; experiment: Antiviral activity against multidrug resistant HIV1 MDR/C containing protease mutant infected in human PHA-PBMs assessed as inhibition of p24 Gag protein production relative to wild type
[8] = tested on: Human immunodeficiency virus 1; experiment: Antiviral activity against multidrug resistant HIV1 MDR/G containing protease mutant infected in human PHA-PBMs assessed as inhibition of p24 Gag protein production; settings: Human immunodeficiency virus 1, MDR/G

Sequence of Protease (Q9YQ12 whole entry): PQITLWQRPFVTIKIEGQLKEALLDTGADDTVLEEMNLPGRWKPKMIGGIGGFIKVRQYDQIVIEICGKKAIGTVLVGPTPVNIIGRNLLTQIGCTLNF

| Compound | Ki (Protease) | IC50 [1] | further results |
| --- | --- | --- | --- |
| COc1ccc(S(=O)(=O)N(CC(C)C)C[C@@H](O)[C@H](Cc2cccc(-c3cc(C)cc(C)c3)c2)NC(=O)O[C@H]2CCOC2)cc1 | 0.63 nM | > 1000 nM |  |
| COc1ccc(S(=O)(=O)N(CC(C)C)C[C@@H](O)[C@H](Cc2cccc(-c3ccc4c(c3)OCO4)c2)NC(=O)OC(C)(C)C)cc1 | 18 nM | > 1000 nM |  |
| COc1ccc(S(=O)(=O)N(CC(C)C)C[C@@H](O)[C@H](Cc2cccc(-c3cc(OC(F)(F)F)cc(OC(F)(F)F)c3)c2)NC(=O)OC(C)(C)C)cc1 | 92.8 nM | > 1000 nM |  |
| COc1ccc(S(=O)(=O)N(CC(C)C)C[C@@H](O)[C@H](Cc2cccc(-c3ccccc3OC)c2)NC(=O)O[C@H]2CO[C@H]3OCC[C@H]32)cc1 | 0.012 nM | 3 nM | fold change (FC) [2]: 1; fold change (FC) [3]: 8; EC50 [4]: 36 nM; EC50 [5]: 2.9 nM; EC50 [6]: 4.8 nM; fold change (FC) [7]: 1; EC50 [8]: 4.7 nM |
| COc1ccc(S(=O)(=O)N(CC(C)C)C[C@@H](O)[C@H](Cc2cccc(-c3cc(OC)cc(OC)c3)c2)NC(=O)OC(C)(C)C)cc1 | 0.82 nM | > 1000 nM |  |
| COc1ccc(S(=O)(=O)N(CC(C)C)C[C@@H](O)[C@H](Cc2cccc(-c3cc(C)cc(C)c3)c2)NC(=O)OC(C)(C)C)cc1 | 48.8 nM | > 1000 nM |  |
| COc1ccc(S(=O)(=O)N(CC(C)C)C[C@@H](O)[C@H](Cc2cccc(-c3cccc(OC)c3)c2)NC(=O)O[C@H]2CCOC2)cc1 | 1.53 nM | > 381 nM |  |
| COc1ccc(S(=O)(=O)N(CC(C)C)C[C@@H](O)[C@H](Cc2cccc(-c3c(OC)cccc3OC)c2)NC(=O)O[C@H]2CO[C@H]3OCC[C@H]32)cc1 | 0.025 nM | 24 nM |  |
| COc1ccc(S(=O)(=O)N(CC(C)C)C[C@@H](O)[C@H](Cc2cccc(-c3cc(OC)cc(OC)c3)c2)NC(=O)O[C@H]2CO[C@H]3OCC[C@H]32)cc1 | 0.014 nM | 5 nM |  |
| COc1ccc(S(=O)(=O)N(CC(C)C)C[C@@H](O)[C@H](Cc2cccc(-c3cccc(OC)c3)c2)NC(=O)O[C@H]2CO[C@H]3OCC[C@H]32)cc1 | 0.014 nM | 5 nM |  |
| COc1ccc(S(=O)(=O)N(CC(C)C)C[C@@H](O)[C@H](Cc2cccc(-c3cc(OC)cc(OC)c3)c2)NC(=O)O[C@H]2CCOC2)cc1 | 0.58 nM | 180 nM |  |
| COc1ccc(S(=O)(=O)N(CC(C)C)C[C@@H](O)[C@H](Cc2cccc(-c3cc(C)cc(C)c3)c2)NC(=O)O[C@H]2CO[C@H]3OCC[C@H]32)cc1 | 0.45 nM | 56 nM |  |
| CC(C)CN(C[C@@H](O)[C@H](Cc1ccccc1)NC(=O)O[C@H]1CCOC1)S(=O)(=O)c1ccc(N)cc1 |  |  | fold change (FC) [2]: 11; fold change (FC) [3]: 12; EC50 [4]: 44 nM; EC50 [5]: 380 nM; EC50 [6]: 37 nM; fold change (FC) [7]: 10; EC50 [8]: 398 nM |
